# How the values were obtained:
# [1] = test system: rat MES model of epilepsy; assay: Maximal electroshock seizure (MES) test, rat; assay type: in vivo; conditions: po; rat MES model, dosed orally 1 hour prior to testing; read-out: ED50, inhibition of seizures
# From the text: The MES testing protocol is based on procedures established at the National Institute of Neurological Disorders and Stroke in conjunction with the Anticonvulsant Screening Program (ASP) at the University of Utah (White, H. S., Woodhead, J. H., Wilcox, K. S., Stables, J. P., Kupferberg, H. J and Wolf, H. H. 2002. “General Principles: Discovery and Preclinical Development of Antiepileptic Drugs,” in Antiepileptic Drugs, 5th Edition, R. H. Levy, ed.; R. H. Mattson, B. S. Meldrum, and E. Perucca. Philadelphia, Lippincott Williams & Wilkins.), The goal of the test rapid identification and characterization of the in vivo anticonvulsant activity of any compounds that have been shown active in PC-12 cellular based Rb^+ efflux assay.
# Adult male CF-I albino mice (18-25 g, Charles River Laboratories) are exclusively used for in-house MES screen of compounds. Male Sprague-Dawley albino rats (100-125 g, Charles River Laboratories) are also used to test anticonvulsant compounds. Variability of test outcomes is reduced by using animals of the same sex, age, and weight. Animals are permitted to rest and recover from transit for at least 48 hr prior to experimentation. Animals are used for AED testing only once. In some instances, the animals may be anesthetized prior to blood collection and/or whole brain extraction for pharmacokinetic assay. All animals are maintained and handled as outlined in standard animal care guidelines.
# In the experiments, testing compounds are prepared as suspensions in 0.5% methyl cellulose (Sigma, Cat #M0512, Viscosity 4000 cP at 20° C.) in water, regardless of solubility. Dry powder compounds are initially ground with a glass rod in a test tube in several drops of methyl cellulose to create a paste and to break down any large chunks. After several minutes of grinding, the volume of the suspension is increased to the final concentration desired. The suspension is then sonicated using a Branson sonicator model 3510 in a water bath at room temperature for 15 minutes. Compound suspensions are further vortexed prior to animal dosing. In some of the cases, DMSO is used to initially solubilize compounds in small volumes and then this solution is added to the 0.5% methyl cellulose solution, in order to create more even and less aggregated compound suspensions. The final concentration of DMSO is 3.75%, an amount with no apparent toxicity or neuroprotective effects in our usual rotarod and MES tests. Methyl cellulose/DMSO compound suspensions are identically prepared for intraperitoneally (i.p.) to mice or orally (p.o.) to rat dosing.
# Initially the animals are weighed with an electronic scale and then marked. Data recording sheets are generated for each compound assessment. Mice or rats are dosed with the compound suspension at 0.01 mL/g of body weight. The typical injection volume range is between 180-250 μl for mice. Compounds are dosed by i.p. to mice using a 25 or 22 gauge needle, depending on the viscosity of the suspension. Rats are p.o. dosed using a flexible feeding tube, typically starting at a compound dose of 5 mg/kg.
# A Rodent Electroconvulsive Stimulator (Model 200, Hamit-Darvin-Freesh, Snow Canyon Clinic, Ivins, Utah) is used for MES testing. A 60-Hz alternating current (50 mA for mice; 150 mA for rats) is delivered for 0.2 seconds through corneal electrodes to the mice. […] Animals are monitored for hind limb tonic extension as the end point for this test. Current delivery is recorded as a measure of overall seizure-induction potential. […]
# KCNQ2/3 = KCNQ2/3 (Homo sapiens, UniProt O43525+O43526); assay: Two-electrode voltage-clamp in Xenopus laevis oocytes, KCNQ2/3; assay type: cell-based
# Protocol: Female Xenopus laevis extracted ovaries were purchased from eNASCO (LM00935MX, eNASCO Fort Atkinson, Wis.). […] Approximately 50 nl cRNA (about 50 ng) was injected for KCNQ1, KCNQ4, and KCNQ5 using a Nanoject microinjector (Drummond, Broomall, Pa., USA). For co-expression of KCNQ2 and KCNQ3 and of KCNQ1 and KCNE1, cRNA's were mixed in equal molar ratios before injection of approximately 50 nl. […] Oocytes were kept in Culture Barth solution at 19° C. which was changed daily and currents were recorded after 3 to 5 days.
# KCNQ channel currents expressed in Xenopus laevis oocytes were recorded using a two-electrode voltage-clamp. […] The oocytes were placed in custom built perfusion chambers connected to a continuous flow system and impaled with a current electrode and a voltage-clamp electrode pulled from borosilicate glass on a Flaming/Brown Micropipette Puller (Sutter Instruments Co, Novato, Calif., USA).
# All compounds were dissolved in DMSO to obtain concentrated stock solutions. On the day of electrophysiological experiments the stock solutions were thawed and diluted in recording solution to their final concentrations. The final DMSO concentration never exceeded 0.1%. Compound delivery was performed using a custom built multi-barrel apparatus connected to the flow system.
# Data were acquired by means of an Axograph X software (Axograph Scientific, Sydney, AU) and analyzed using Graph Pad Prism (GraphPad Software Inc., CA, USA). […]
# After steady channel current was recorded in the presence of Retigabine at its EC75, recorded oocyte was washed with the recording solution until its steady current returned to its normal level without the presence of any drugs. Then the channel steady current was recorded in the presence of the test compound at its EC75. The percent efficacy was then expressed as: % efficacy=(C2/C 1)×100 where C2 is the recorded steady current in the presence of follow-on compound at its EC75 and C1 is the recorded steady current in the presence of Retigabine at its EC75.
structure (smiles),measurement,setting,value
"Cc1cc(N2CCc3cc(F)ccc3C2)cc(C)c1NC(=O)CC(C)(C)C [compound A, N-[4-(6-fluoro-3,4-dihydro-1H-isoquinolin-2-yl)-2,6-dimethylphenyl]-3,3-dimethyl butanamide]",ED50,[1],1.1 mg/kg
same,EC50,KCNQ2/3,350 nM
same,KCNQ2/3 Efficacy Relative to Retigabine (%),"KCNQ2/3; oocyte expression, at EC75",143%
